In US9999222B2, “Herbicidal combination comprising azines” (BASF SE, priority 2014, dated 2018):
Where “and” joins values, the source holds several entries; their conditions need not be identical. Equal values may be shown once. Read-outs that look alike come from different tables or passages of the source.

What was measured:
Experiment in all cases: Greenhouse test, pre-emergence treatment
ALOMY = format: in vivo, Alopecurus myosuroides; details: Alopecurus myosuroides, pre-emergence, 480 h; for inhibition at 12.5 g/ha: use rate 12.5 g ai/ha; for inhibition at 25 g/ha: use rate 25 g ai/ha
Procedure, shortened: (§1)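 Seeds were sown in loamy sand with about 3.0% humus, and compounds in water were sprayed immediately after sowing, alone or as combinations formulated as 10% emulsion concentrates. Plants grew under hoods until rooted, at 10-25 °C or 20-35 °C by species, for 2 to 4 weeks. Damage was scored 0-100 (100 = no emergence or complete destruction), and Colby expected values were E=X+Y−(X·Y/100).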

ECHCG = format: in vivo, Echinocloa crus-galli; details: Echinochloa crus-galli, 480 h, read-out: observed % activity 20 DAT; for inhibition at 12.5 g/ha: use rate 12.5 g ai/ha
Procedure, shortened: as §1

POLCO = format: in vivo, Polygonum convolvulus; details: Fallopia convolvulus, 480 h, pre-emergence; for inhibition at 12.5 g/ha: use rate 12.5 g ai/ha
Procedure, shortened: as §1

SETFA = format: in vivo, Setaria faberi; details: Setaria faberi, 480 h, SETFA, 20 DAT, read-out: observed % activity 20 DAT
Procedure, shortened: as §1

AVEFA = format: in vivo, Avena fatua; details: pre-emergence
Procedure, shortened: as §1

BRADC = format: in vivo, Brachiaria decumbens; details: pre-emergence
Procedure, shortened: as §1

COMBE = format: in vivo, Commelina benghalensis; details: Commelina benghalensis, 480 h; pre-emergence, 12 g ai/ha; read-out: observed % activity 20 DAT
Procedure, shortened: as §1

EPHHL = format: in vivo, Euphorbia heterophylla; details: Euphorbia heterophylla, pre-emergence, 480 h, pre-emergence, read-out: observed % activity 20 DAT
Procedure, shortened: as §1

GALAP = format: in vivo, Galium aparine; details: Galium aparine, 480 h, pre-emergence
Procedure, shortened: as §1

GERPU = format: in vivo, Geranium pusillum; details: Geranium pusillum, pre-emergence, 480 h, pre-emergence, read-out: observed % activity 20 DAT
Procedure, shortened: as §1

KCHSC = format: in vivo, Kochia scoparia; details: Bassia scoparia, 480 h, pre-emergence
Procedure, shortened: as §1

LOLMU = format: in vivo, Lolium multiflorum; details: Lolium multiflorum, pre-emergence, 480 h; for inhibition at 12.5 g/ha: use rate 12.5 g ai/ha; for inhibition at 25 g/ha: use rate 25 g ai/ha
Procedure, shortened: as §1

PHACA = format: in vivo, Phalaris canariensis; details: Phalaris canariensis, pre-emergence, 480 h; for inhibition at 12.5 g/ha: use rate 12.5 g ai/ha; for inhibition at 25 g/ha: use rate 25 g ai/ha
Procedure, shortened: as §1

IPOHE = format: in vivo, Ipomoea hederacea; details: Ipomoea hederacea, 480 h, 24 g ai/ha, read-out: observed % activity 20 DAT
Procedure, shortened: as §1

SORHA = format: in vivo, Sorghum halepense; details: Sorghum halepense, pre-emergence, 480 h, 20 DAT, read-out: observed % activity
[1] = 12 g ai/ha, 20 DAT, read-out: observed % activity
[2] = 24 g ai/ha, 20 DAT, read-out: observed % activity
[3] = 6 g ai/ha, read-out: observed % activity 20 DAT
[4] = 12 g ai/ha, read-out: observed % activity 20 DAT
[5] = 24 g ai/ha, read-out: observed % activity 20 DAT
[6] = ALOMY, 20 DAT, read-out: observed % activity 20 DAT
[7] = read-out: observed % activity 20 DAT
[8] = 6 g ai/ha, 20 DAT, read-out: observed % activity
[9] = 8 g ai/ha, read-out: observed % activity 20 DAT
[10] = LOLMU, 20 DAT, read-out: observed % activity 20 DAT
[11] = PHACA, 20 DAT, read-out: observed % activity 20 DAT

Cn1nc(C(F)(F)F)c(CS(=O)(=O)C2=NOC(C)(C)C2)c1OC(F)F [Pyroxasulfone, pyroxasulfone]
inhibition at 12 g/ha (ALOMY; [1]): 95%
inhibition at 24 g/ha (ALOMY; [2]): 98%
pest or weed control at 6 g/ha (ALOMY; [3]): 80%
pest or weed control at 12 g/ha (ALOMY; [4]): 95%
pest or weed control at 24 g/ha (ALOMY; [5]): 98%
inhibition at 12.5 g/ha (ALOMY; [6]): 20%
inhibition at 25 g/ha (ALOMY; [6]): 20%
inhibition at 12.5 g/ha (ALOMY; [7]): 20%
inhibition at 25 g/ha (ALOMY; [7]): 20%
pest or weed control at 8 g/ha (ECHCG; 8 g ai/ha): 70%
inhibition at 12.5 g/ha (ECHCG; ECHCG, 20 DAT): 50%
inhibition at 25 g/ha (ECHCG; ECHCG, use rate 25 g ai/ha, 20 DAT): 90%
inhibition at 12.5 g/ha (ECHCG): 50%
pest or weed control at 12 g/ha (POLCO; [4]): 20%
pest or weed control at 24 g/ha (POLCO; [5]): 20%
inhibition at 12 g/ha (POLCO; [1]): 0%
inhibition at 12.5 g/ha (POLCO; POLCO, 20 DAT, read-out: observed % activity 20 DAT): 0%
inhibition at 12.5 g/ha (POLCO; [7]): 0%
inhibition at 12.5 g/ha (SETFA; use rate 12.5 g ai/ha): 80%
inhibition at 25 g/ha (SETFA; use rate 25 g ai/ha): 95%
inhibition at 6 g/ha (AVEFA; Avena fatua, 480 h, 6 g ai/ha, 20 DAT, read-out: observed % activity): 0%
inhibition at 24 g/ha (AVEFA; Avena fatua, 480 h, 24 g ai/ha, 20 DAT, read-out: observed % activity): 60%
observed % activity 20 DAT (AVEFA; 8 g ai/ha): 40%
observed % activity 20 DAT (AVEFA; 12 g ai/ha): 20% and 30%
observed % activity 20 DAT (AVEFA; 16 g ai/ha): 60% and 35%
observed % activity 20 DAT (AVEFA; 24 g ai/ha): 70%
inhibition at 6 g/ha (BRADC; Urochloa decumbens, 480 h, 6 g ai/ha, 20 DAT, read-out: observed % activity): 53%
pest or weed control at 6 g/ha (BRADC; Urochloa decumbens, 480 h, 6 g ai/ha, read-out: observed % activity 20 DAT): 35%
pest or weed control at 12 g/ha (BRADC; Urochloa decumbens, 480 h, 12 g ai/ha, read-out: observed % activity 20 DAT): 30%
pest or weed control at 16 g/ha (BRADC; Urochloa decumbens, 480 h, 16 g ai/ha, read-out: observed % activity 20 DAT): 55%
pest or weed control at 24 g/ha (BRADC; Urochloa decumbens, 480 h, 24 g ai/ha, read-out: observed % activity 20 DAT): 95%
observed % activity 20 DAT (BRADC; 12 g ai/ha): 30%
pest or weed control at 12 g/ha (COMBE): 90%
pest or weed control at 12 g/ha (EPHHL; 12 g ai/ha): 40%
pest or weed control at 24 g/ha (EPHHL; 24 g ai/ha): 70%
pest or weed control at 12 g/ha (GALAP; [4]): 35%
pest or weed control at 24 g/ha (GALAP; [5]): 50%
inhibition at 12 g/ha (GALAP; [1]): 75%
inhibition at 24 g/ha (GALAP; [2]): 75%
pest or weed control at 12 g/ha (GERPU; 12 g ai/ha): 10%
pest or weed control at 24 g/ha (GERPU; 24 g ai/ha): 20%
pest or weed control at 12 g/ha (KCHSC; [4]): 50%
pest or weed control at 24 g/ha (KCHSC; [5]): 80%
inhibition at 6 g/ha (KCHSC; [8]): 0%
inhibition at 12 g/ha (KCHSC; [1]): 85%
inhibition at 25 g/ha (KCHSC; use rate 25 g ai/ha, read-out: observed % activity 20 DAT): 0%
inhibition at 6 g/ha (LOLMU; [8]): 35%
inhibition at 24 g/ha (LOLMU; [2]): 98%
pest or weed control at 6 g/ha (LOLMU; [3]): 70%
pest or weed control at 8 g/ha (LOLMU; [9]): 50%
pest or weed control at 12 g/ha (LOLMU; [4]): 80%
pest or weed control at 24 g/ha (LOLMU; [5]): 95%
inhibition at 12.5 g/ha (LOLMU; [10]): 30%
inhibition at 25 g/ha (LOLMU; [10]): 40%
inhibition at 12.5 g/ha (LOLMU; [7]): 30%
inhibition at 25 g/ha (LOLMU; [7]): 40%
inhibition at 6 g/ha (PHACA; [8]): 80%
inhibition at 24 g/ha (PHACA; [2]): 95%
pest or weed control at 6 g/ha (PHACA; [3]): 70%
pest or weed control at 8 g/ha (PHACA; [9]): 70%
pest or weed control at 12 g/ha (PHACA; [4]): 75%
pest or weed control at 16 g/ha (PHACA; 16 g ai/ha, read-out: observed % activity 20 DAT): 75%
pest or weed control at 24 g/ha (PHACA; [5]): 95%
inhibition at 12.5 g/ha (PHACA; [11]): 40%
inhibition at 25 g/ha (PHACA; [11]): 55%
inhibition at 12.5 g/ha (PHACA; [7]): 40%
inhibition at 25 g/ha (PHACA; [7]): 55%
pest or weed control at 24 g/ha (IPOHE): 10%
inhibition at 6 g/ha (SORHA; 6 g ai/ha): 75%
inhibition at 24 g/ha (SORHA; 24 g ai/ha): 98%
